Source: patent US7112680B2, “Heterocyclic hydrazones for use as anti-cancer agents” (Austria Wirtschaftsservice Gesellschaft MIT Beschrankter …, priority 2000, dated 2006)
Like-named read-outs stand apart in the source and are kept apart here.

Legend:
[1] = system: Burkitt's lymphoma (CA 46, ATCC No. CRL 1648); assay: Inhibition of tumor cell growth, MTT-assay, Burkitt's lymphoma; type: cell-based, human; conditions: read-out: IC50 Burkitts
Description: (§1) The KB cell lines were grown in Dulbecco's modified Eagle's medium (4,5 g glucose/l). To the cultures of KB-C1 cells 1 μg of colchicine/ml, and to the hydroxyurea-resistant KB-HU cells 1 mM hydroxyurea was added every other week. […] 3,000 - 10,000 cells in 200 μl medium were seeded per well into 96-well plates. […] Approximately 10,000 cells per 100 μl were seeded in 96-well plates. […] The substances were dissolved in dimethylsulfoxide (DMSO). […] Subsequently, the samples were fixed, washed, and the absorption was determined by a microplate reader.

[2] = system: K562 (chronic myelogenous leukemia); assay: Inhibition of tumor cell growth, K562; type: cell-based, human; conditions: 72 hours
Description: In order to obtain information about the growth-inhibiting action on tumor cells, the inhibition of the growth of the following human tumor cells was determined: Burkitt's lymphoma (CA 46, ATCC No. CRL 1648), CCRF-CEM (acute lymphoblastic leukemia, ATCC No. CCL 119), K562 (chronic myelogenous leukemia, ATTC No. CCL 243), HeLa (epitheloid cervix carcinoma, ATCC No. CCL 2), MEXF 276L (melanoma), HT-29 (colon adenocarcinoma, ATCC No. HTB 38), KB-3-1 (human oral epidermoid carcinoma, CTCC No. CCL 17), KB-HU hydroxyurea-resistant, multidrug-resistant KB-C1 cells (Akiyama et al, Cell. Mol Genet., 11:117–126, 1985). Burkitt's, CCRF-CEM, HeLa and MEXF 276L cells were grown in RPMI 1640, HT-29 cells in McCoy's 5A medium. The KB cell lines were grown in Dulbecco's modified Eagle's medium (4,5 g glucose/l). To the cultures of KB-C1 cells 1 μg of colchicine/ml, and to the hydroxyurea-resistant KB-HU cells 1 mM hydroxyurea was added every other week. The media were supplemented with 10% fetal calf serum (except Burkitt's lymphoma cells with 15%), 2 mM glutamine, 50 units/ml penicillin and 50 μg/ml streptomycin. Inhibition of growth of HeLa, HT-29, KB and MEXF 276L cells was detected by the SRB-assay (Skehan et al, J. Natl Cancer Inst., 82:1107–1112, 1990). 3,000 - 10,000 cells in 200 μl medium were seeded per well into 96-well plates. Dose-response curves for CCRF-CEM and Burkitt's lymphoma cells were effected by an MTT-assay (Mosman, J. Immunol Methods, 65:55–63, 1983) from Boehringer Mannheim, Mannheim, Germany. Approximately 10,000 cells per 100 μl were seeded in 96-well plates. After an initial incubation of four hours, various substance concentrations were added, and the cells were incubated at 37° C. in a water-saturated atmosphere of 95% air and 5% CO2 for 72 hours. The substances were dissolved in dimethylsulfoxide (DMSO). The concentration of DMSO was 0.5%, and this was not toxic to the cells. Subsequently, the samples were fixed, washed, and the absorption was determined by a microplate reader.

[3] = system: HeLa (epitheloid cervix carcinoma); assay: Inhibition of tumor cell growth, SRB-assay, HeLa; type: cell-based, human; conditions: read-out: IC50 HeLa (converted)
[4] = system: HT-29 (colon adenocarcinoma); assay: Inhibition of tumor cell growth, SRB-assay, HT-29; type: cell-based, human; conditions: read-out: IC50 HT-29 (converted)
Description: as §1

[5] = system: human tumor grafts (cell lines of FIG. 1); assay: Colony forming assay (two-layer soft agar); type: cell-based; conditions: for IC50 / IC90 / Mean IC70: mean values of all cell lines tested in FIG. 1, continuous exposure 3 to 6 days; for tumor type selectivity: IC70 pattern, FIG. 1
Description: An excellent correlation of drug response in patients and the colony forming assay has been found (Scholz et al, Eur. J. Cancer 25:901–905, 1990). Solid human tumors were grown as grafts in nude mice, removed from the latter, mechanically comminuted and subsequently incubated in an enzyme cocktail consisting of collagenase (1.2–1.8 U/ml), DNAse (375 U/ml) and hyaluronidase (29 U/ml) in RPMI 1640 medium at 37° C. for 30 minutes. The cell mixture was passed through sieves of 200 μm and 50 μm mesh size and washed thereafter twice with PBS (phosphate buffered saline). The percentage of live cells was determined using a Neubauer counting chamber and trypan blue staining.
The colony forming assay was performed according to a two-layer agar technique introduced and modified by Hamburger and Salmon (Hamburger and Salmon, Science, 197:461–463, 1977). The bottom layer consisted of 0.2 ml of Iscoves's Modified Dulbecco's medium with 20% fetal calf serum and 0.75% agar. 8×10^3 to 1.6×10^4 cells were added to the same medium and 0.4% agar and plated in 24-multiwell plates onto the base layer. One day after the plating (with continuous exposure), the substances were added in 0.2 ml medium. Each plate included six controls containing the solvent only, and the treated groups contained 6 concentrations of the substances, each in triplicate. Cultures were incubated at 37° C. and 7% CO2 in a water-saturated atmosphere for 3 to 6 days, depending on the doubling time of the tumor cells. At the time of maximum colony formation with a size of […], counts were performed with an automatic image analysis system. 24 h prior to counting, live colonies were stained with a sterile aqueous solution of 2-(4-iodophenyl)-3-(4-nitrophenyl)-5-phenyltetrazolium chloride (1 mg/ml, 100 μl/well). The results of the tests are given in FIG. 1, and in the following Table 5, respectively. […] Columns pointing towards the right show a slighter than average activity.

Burkitt's lymphoma cells = assay: Apoptosis determination with propium iodide; type: cell-based, human; conditions: twice the IC50 concentrations, 48 hours; non-treated cells 1.7%
Description: In non-treated Burkitt's lymphoma cells, an average of 1.7% are apoptotic. […] The determination of the apoptosis was performed with propium iodide (Nicoletti et al., Rapid and Simple Method for Measuring Thymocyte Apoptosis by Propium Iodine Staining and Flow Cytometry, J. Immunol. Methods, 139, 271–279, 1991).

[6] = Homo sapiens, CA46, Table 3, 72 hours
[7] = Homo sapiens, HeLa, Table 3, 72 hours
[8] = Homo sapiens, HT-29, Table 3, 72 hours

| Compound | IC50 ([2]; Table 1) | IC50 ([3]; Table 1, 72 hours) | IC50 ([4]; Table 1, 72 hours) | IC50 [5] | IC90 [5] | IC50 ([2]; Table 3) | IC50 ([3]; Table 3, 72 hours) | IC50 ([4]; Table 3, 72 hours) | Mean IC70 [5] | further results |
| --- | --- | --- | --- | --- | --- | --- | --- | --- | --- | --- |
| CCCC(=NNc1nc2ccccc2n1C)c1ccccn1 [Ia-12] | 80 nM | 17 nM | 16300 nM | 246 nM | 3740 nM | – | – | – | 0.603 µM | IC50 ([1]; Table 1, 72 hours): 1780 nM |
| Cn1c(NN=C(c2ccccn2)C(C)(C)C)nc2ccccc21 [Ia-20] | 1680 nM | 530 nM | > 100000 nM | 15 nM | 231 nM | – | – | – | 0.064 µM | IC50 ([1]; Table 1, 72 hours): 8430 nM |
| Cn1c(NN=C(c2ccccn2)C2CC2)nc2ccccc21 [Ia-24, E/Z-Cyclopropyl-(2-pyridyl)-methanone-(1-methyl-1H-benzo[d]imidazol-2-yl)-hydrazone] | 40 nM | 2 nM | 2880 nM | 138 nM | 3140 nM | – | – | – | 0.387 µM | tumor type selectivity ([5]; colony forming assay): selectivity for colon, breast, ovarian, and uterus tumors |
| CCn1c(NN=C(C)c2ccccn2)nc2ccccc21 [Ic-1, 1-(2-Pyridyl)-1-ethanone-1-(1-ethyl-1H-benzo[d]imidazol-2-yl)hydrazone] | – | – | – | – | – | – | – | – | – | IC50 [1, 6]: 680 nM; IC50 ([2]; Homo sapiens, K562, Table 3): 60 nM; IC50 [3, 7]: 190 nM; IC50 [4, 8]: 11900 nM |
| CCCn1c(NN=C(C)c2ccccn2)nc2ccccc21 [Ic-2] | – | – | – | – | – | 120 nM | 210 nM | 35100 nM | – | IC50 ([1]; Table 3, 72 hours): 1280 nM |
| CC(=NNc1nc2ccccc2n1C(C)C)c1ccccn1 [Ic-3] | – | – | – | 265 nM | 4300 nM | 330 nM | 60 nM | 16100 nM | 0.750 µM | IC50 ([1]; Table 3, 72 hours): 2140 nM |
| C=CCn1c(NN=C(C)c2ccccn2)nc2ccccc21 [Ic-5] | – | – | – | 214 nM | 3330 nM | 180 nM | 10 nM | 12800 nM | 0,607 μM | IC50 ([1]; Table 3, 72 hours): 980 nM; tumor type selectivity ([5]; colony forming assay): selectivity for colon, breast, ovarian, and uterus tumors |
| CC(=NNc1nc2ccccc2n1C1CC1)c1ccccn1 [Ic-6] | – | – | – | – | – | 90 nM | 400 nM | 11200 nM | – | – |
| CC(=NNc1nc2ccccc2n1-c1ccccc1)c1ccccn1 [Ic-7, 1-(2-Pyridyl)-1-ethanone-1-(1-phenyl-1H-benzo[d]imidazol-2-yl)-hydrazone] | – | – | – | – | – | – | – | – | 1.741 µM | IC50 [1, 6]: 3480 nM; IC50 ([2]; Homo sapiens, K562, Table 3): 700 nM; IC50 [3, 7]: 50 nM; IC50 [4, 8]: 100 nM; IC50 ([5]; Homo sapiens): 760 nM; IC90 ([5]; Homo sapiens): 6300 nM |
| NC(=O)NO [hydroxyurea, reference compound] | – | – | – | – | – | – | – | – | – | in vitro anti-tumor activity against human cancer cells (in words) ([5]; colony forming assay, Table 5 / FIG. 1): far lower than that of the compounds according to the invention; apoptotic cells (Burkitt's lymphoma cells): 7.3% |

Now from value to compound, other results behind:

| IC50 ([2]; Table 1) | IC50 ([3]; Table 1, 72 hours) | IC50 ([4]; Table 1, 72 hours) | IC50 [5] | IC90 [5] | IC50 ([2]; Table 3) | IC50 ([3]; Table 3, 72 hours) | IC50 ([4]; Table 3, 72 hours) | Compound | Mean IC70 [5] | further results |
| --- | --- | --- | --- | --- | --- | --- | --- | --- | --- | --- |
| 90 nM | 20 nM | 11000 nM | – | – | – | – | – | CCC(=NNc1nc2ccccc2n1C)c1ccccn1 [Ia-8] | – | IC50 ([1]; Table 1, 72 hours): 1010 nM |
| 50 nM | 6 nM | 5580 nM | 188 nM | 3770 nM | – | – | – | CC(C)C(=NNc1nc2ccccc2n1C)c1ccccn1 [Ia-16] | 0.521 µM | tumor type selectivity ([5]; colony forming assay): selectivity for colon, breast, ovarian, and uterus tumors |
| 60 nM | 9 nM | 8740 nM | 294 nM | 4660 nM | – | – | – | Cn1c(NN=C(c2ccccc2)c2ccccn2)nc2ccccc21 [Ia-29] | 0.741 µM | tumor type selectivity ([5]; colony forming assay): selectivity for colon, breast, ovarian, and uterus tumors |
| 30 nM | 90 nM | 4640 nM | – | – | – | – | – | Cn1c(NN=C(c2ccccn2)c2ccccn2)nc2ccccc21 [Ia-37] | – | – |
| – | – | – | – | – | 450 nM | 130 nM | 160 nM | CC(=NNc1nc2ccccc2n1Cc1ccccc1)c1ccccn1 [Ic-8] | – | IC50 ([1]; Table 3, 72 hours): 3580 nM |
